Key:
Type in all cases: in vivo
[1] = tested on: Rhipicephalus microplus larvae (strain Parkhurst, resistant against synthetic pyrethroids); test: Rhipicephalus (Boophilus) microplus in-vitro contact test, larval cattle tick; conditions: after 48 hours, read-out: activity (efficacy: larvae dead or moribund); for pest or weed control at 100 g/ha: application rate 1 pg/cm^2 (=100 g/ha); for pest or weed control at 500 g/ha: application rate 5 pg/cm^2 (=500 g/ha)
Outline: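 Acetone solutions coated onto inner walls of glass tubes by rotation (900 ppm giving 5 μg/cm^2); after evaporation, 20-50 larvae added per tube and held at 27° C., 85% relative humidity. Efficacy read after 48 h from negative geotactic behaviour; 100% = all larvae dead or moribund.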

[2] = tested on: adult brown dog ticks (Rhipicephalus sanguineus); test: Rhipicephalus sanguineus in-vitro contact test, adult brown dog ticks; conditions: after 48 hours, read-out: activity (efficacy: ticks dead or moribund); for pest or weed control at 100 g/ha: application rate 1 pg/cm^2 (=100 g/ha); for pest or weed control at 5 µg/cm2, 500 g/ha: application rate 5 μg/cm^2 (=500 g/ha)
Outline: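 Acetone solution rolled onto tube walls, 2 h at 30 rpm; 900 ppm → 5 μg/cm^2. Solvent evaporated, 5-10 adults/tube, perforated lid, lying, RT. 48 h: heat plate 45-50° C ≤5 min; immotile/uncoordinated = dead/moribund. 100% = all dead/moribund.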

[3] = tested on: Anopheles funestus strain FUMOZ-R; test: Anopheles funestus test (ANPHFU surface treatment & contact assay); conditions: 24 hours after contact, read-out: efficacy (mortality); for mortality at 4 mg/m2: surface concentration 4 mg/m^2, exposure 30 minutes; for mortality at 20 mg/m2: surface concentration 20 mg/m^2, exposure 30 minutes
Outline: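 Compound dissolved in acetone at 2 mg/ml with 2000 ppm RME, pipetted onto glazed tile; acetone evaporated. Adult FUMOZ-R mosquitoes exposed to dried surface for 30 min. Percent mortality scored 24 h after contact.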

[4] = tested on: Musca domestica strain WHO-N; test: Musca domestica test (MUSCDO surface treatment & contact assay); conditions: 24 hours after contact, read-out: efficacy (mortality); for mortality at 20 mg/m2: surface concentration 20 mg/m^2, exposure 30 minutes; for mortality at 4 mg/m2: surface concentration 4 mg/m^2, exposure 30 minutes
Outline: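 Compound dissolved at 2 mg/ml in acetone with 2000 ppm rapeseed oil methyl ester and pipetted onto a glazed tile. After the acetone evaporated, adult WHO-N flies were exposed to the dried surface for 30 min, with % mortality scored 24 h after contact.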

[5] = tested on: larvae of the southern green stink bug (Nezara viridula); test: Nezara viridula spray test; conditions: 96 h, after 4 days; for mortality at 100 g/ha: application rate 100 g/ha; for mortality at 500 g/ha: application rate 500 g/ha
Outline: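 Compound in acetone/dimethylformamide, diluted in water with 1000 ppm alkylarylpolyglycol ether emulsifier, sprayed onto barley plants carrying stink bug larvae. Mortality (%) scored after 4 days, 100% meaning all insects killed.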

[6] = tested on: Culex quinquefasciatus strain P00; test: Culex quinquefasciatus test (CULXFA surface treatment & contact assay); conditions: 24 hours after contact, read-out: efficacy (mortality); for mortality at 4 mg/m2: surface concentration 4 mg/m^2, exposure 30 minutes; for mortality at 20 mg/m2: surface concentration 20 mg/m^2, exposure 30 minutes
Outline: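 Compound in acetone (2 mg/ml) with 2000 ppm rapeseed oil methyl ester, dried onto glazed tile. Adult mosquitoes exposed to the treated surface for 30 min. Percent mortality scored 24 h after contact.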

[7] = tested on: brown planthopper (Nilaparvata lugens); test: Nilaparvata lugens spray test; conditions: 96 h, after 4 days; for mortality at 100 g/ha: application rate 100 g/ha
Description: Nilaparvata lugens—Spray Test
Solvent: 78.0 parts by weight of acetone • • 1.5 parts by weight of dimethylformamide
Emulsifier: alkylarylpolyglycol ether
To produce a suitable preparation of active compound, 1 part by weight of active compound is mixed with the stated amount of solvents and is diluted with water, containing an emulsifier concentration of 1000 ppm, to the desired concentration. Further test concentrations are prepared by dilution with emulsifier containing water.
Rice plants (Oryza sativa) are sprayed with a preparation of the active ingredient of the desired concentration and the plants are infested with the brown planthopper (Nilaparvata lugens).
After 4 days mortality in % is determined. 100% means all planthoppers have been killed and 0% means none of the planthoppers have been killed.

Structure (SMILES) | pest or weed control at 100 g/ha [1] | pest or weed control at 500 g/ha [1] | pest or weed control at 100 g/ha [2] | pest or weed control at 5 µg/cm2, 500 g/ha [2] | mortality at 4 mg/m2 [3] | mortality at 20 mg/m2 [3] | mortality at 20 mg/m2 [4] | mortality at 100 g/ha [5] | mortality at 4 mg/m2 [6] | mortality at 20 mg/m2 [6] | mortality at 4 mg/m2 [4] | mortality at 100 g/ha [7] | mortality at 500 g/ha [5] | mortality at 500 g/ha ([7]; application rate 500 g/ha)
CC(C)c1nc([C@H](C)NC(=O)c2cc(OC(F)(F)F)cc(C3CC3)c2)n(-c2ccc(C#N)cn2)n1 [I-23] | 100% | 100% | 100% | 100% | 80 to 100% | 80 to 100% | 80 to 100% | – | – | – | – | – | – | –
C[C@H](NC(=O)c1cc(Cl)cc(S(=O)(=O)C2CC2)c1)c1nc(C2CC2)nn1-c1ncc(Cl)cn1 [I-25] | 100% | 100% | – | – | – | – | 80 to 100% | 100% | 80 to 100% | 80 to 100% | 80 to 100% | – | – | –
CC(NC(=O)c1cc(C(F)(F)F)cc(S(C)(=O)=O)c1)c1nc(Cl)nn1-c1ncccn1 (stereo not drawn) [I-30] | 100% | 100% | 100% | 100% | 80 to 100% | 80 to 100% | 80 to 100% | 100% | – | – | – | 100% | – | –
CSc1cc(C#N)cc(C(=O)N[C@@H](C)c2ncnn2-c2ccc(C#N)cn2)c1 [II-3] | 90% | 90% | – | – | – | 80 to 100% | – | 100% | 80 to 100% | 80 to 100% | – | – | 100% | –
Cc1nc([C@H](C)NC(=O)c2cc(C(F)(F)F)n(C)n2)n(-c2ccc(C#N)cn2)n1 [II-7] | – | 100% | – | – | 80 to 100% | – | 80 to 100% | – | – | 80 to 100% | – | – | 90% | –
Cc1nc([C@H](C)NC(=O)c2cc(Cl)nn2C)n(-c2ccc(C#N)cn2)n1 [II-11] | 100% | 100% | 80% | 80% | 80 to 100% | 80 to 100% | – | – | 80 to 100% | – | 80 to 100% | – | – | –
C[C@H](NC(=O)c1cc(C(F)(F)F)cc(S(C)(=O)=O)c1)c1ncnn1-c1ccc(Cl)cn1 [II-16] | 100% | 100% | – | – | 80 to 100% | – | – | 100% | 80 to 100% | – | – | – | 100% | –
C[C@H](NC(=O)c1cc(Cl)cc(S(=O)(=O)C(F)F)c1)c1ncnn1-c1ccc(C#N)cn1 [II-17] | 100% | 100% | – | – | 80 to 100% | – | – | – | 80 to 100% | 80 to 100% | – | – | 100% | –
C[C@H](NC(=O)c1cc(Cl)cc([S+]([O-])C(F)F)c1)c1ncnn1-c1ccc(C#N)cn1 (stereo partly drawn) [II-18, 3-chloro-N-{(1S)-1-[1-(5-cyanopyridin-2-yl)-1H-1,2,4-triazol-5-yl]ethyl}-5-[(difluoro-methyl)sulfinyl]benzamide] | 100% | 100% | – | – | – | – | 80 to 100% | 100% | 80 to 100% | 80 to 100% | – | – | 100% | –
C[C@H](NC(=O)c1cc(OC(F)(F)F)cc(C2CC2)c1)c1ncnn1-c1ccccn1 [II-22] | 100% | 100% | – | – | – | – | 80 to 100% | – | – | 80 to 100% | 80 to 100% | – | 100% | 90%
C[C@H](NC(=O)c1cc(OC(F)(F)F)cc(C2CC2)c1)c1ncnn1-c1ccc(Cl)cn1 [II-23] | 100% | 100% | 100% | 100% | – | 80 to 100% | 80 to 100% | 100% | 80 to 100% | 80 to 100% | 80 to 100% | – | 100% | –
C[C@H](NC(=O)c1cc(C2CC2)cc(C(F)(F)F)c1)c1ncnn1-c1ccc(C#N)cn1 [II-26] | 100% | 100% | 100% | 100% | – | – | 80 to 100% | 100% | – | – | 80 to 100% | – | 100% | –
C[C@H](NC(=O)c1cc(C2CC2)cc(C(F)(F)F)c1)c1ncnn1-c1ccc(Cl)cn1 [II-27] | 100% | 100% | 100% | 100% | 80 to 100% | – | 80 to 100% | 100% | 80 to 100% | 80 to 100% | 80 to 100% | – | 100% | –
C[C@H](NC(=O)c1cc(C#N)cc(S(C)(=O)=O)c1)c1ncnn1-c1ccc(Cl)cn1 [II-29] | 100% | 100% | 80% | 100% | – | – | – | 100% | 80 to 100% | – | – | – | 100% | –
C[C@H](NC(=O)c1cc(C(F)(F)F)cc(S(=O)(=O)C2CC2)c1)c1ncnn1-c1ccc(C#N)cn1 [II-32] | 100% | 100% | 100% | 100% | – | – | 80 to 100% | 100% | 80 to 100% | 80 to 100% | 80 to 100% | – | 100% | –
Cc1nc([C@H](C)NC(=O)c2cc(Cl)cc(S(=O)(=O)C(F)F)c2)n(-c2ccc(C#N)cn2)n1 [II-35] | 100% | 100% | – | 80% | – | – | 80 to 100% | 100% | – | – | 80 to 100% | – | 100% | –
Cc1nc([C@H](C)NC(=O)c2cc(Cl)cc(S(=O)(=O)C(F)F)c2)n(-c2ccc(Cl)cn2)n1 [II-36] | 100% | 100% | – | 80% | – | – | – | 100% | – | – | 80 to 100% | – | 100% | –
Cc1nc([C@H](C)NC(=O)c2cc(Cl)cc(C3(C#N)CC3)c2)n(-c2ccc(C#N)cn2)n1 [II-38] | 100% | 100% | 100% | 100% | – | – | 80 to 100% | – | – | – | 80 to 100% | – | – | –
C[C@H](NC(=O)c1cc(Cl)cc(S(=O)(=O)C(F)(F)F)c1)c1ncnn1-c1ncc(OC(F)F)cn1 [II-43] | 100% | 100% | – | – | – | – | – | 100% | 80 to 100% | – | – | – | – | –
Cc1nc([C@H](C)NC(=O)c2cc(C(F)(F)F)cc(C3(C#N)CC3)c2)n(-c2ccc(Cl)cn2)n1 [II-50] | 100% | 100% | 100% | 100% | – | – | 80 to 100% | 100% | – | – | – | – | – | –
Cc1nc([C@H](C)NC(=O)c2cc(C(F)(F)F)cc(S(C)(=O)=O)c2)n(-c2ccc(C#N)cn2)n1 [II-52] | 100% | 100% | 100% | 100% | – | – | 80 to 100% | 100% | – | – | 80 to 100% | 100% | – | –
C[C@H](NC(=O)c1cc(C#N)cc(C2CC2)c1)c1ncnn1-c1ncccn1 [II-54] | 90% | 80% | 100% | – | – | 80 to 100% | – | 100% | – | – | – | 100% | – | –

— patent publication US20260206761A1, “HETEROARYL-TRIAZOLE COMPOUNDS AS PESTICIDES” (Bayer Aktiengesellschaft, priority 2019, published 2026)
